# Data as given in patent US20190134005A1 (BioMarin Pharmaceutical Inc., priority 2016, published 2019).
# pIC50: −log10 of the molar value.
# Biological target: T1, human CGT (Homo sapiens, UniProt Q16880)
# T1 sequence (Q16880 21-541): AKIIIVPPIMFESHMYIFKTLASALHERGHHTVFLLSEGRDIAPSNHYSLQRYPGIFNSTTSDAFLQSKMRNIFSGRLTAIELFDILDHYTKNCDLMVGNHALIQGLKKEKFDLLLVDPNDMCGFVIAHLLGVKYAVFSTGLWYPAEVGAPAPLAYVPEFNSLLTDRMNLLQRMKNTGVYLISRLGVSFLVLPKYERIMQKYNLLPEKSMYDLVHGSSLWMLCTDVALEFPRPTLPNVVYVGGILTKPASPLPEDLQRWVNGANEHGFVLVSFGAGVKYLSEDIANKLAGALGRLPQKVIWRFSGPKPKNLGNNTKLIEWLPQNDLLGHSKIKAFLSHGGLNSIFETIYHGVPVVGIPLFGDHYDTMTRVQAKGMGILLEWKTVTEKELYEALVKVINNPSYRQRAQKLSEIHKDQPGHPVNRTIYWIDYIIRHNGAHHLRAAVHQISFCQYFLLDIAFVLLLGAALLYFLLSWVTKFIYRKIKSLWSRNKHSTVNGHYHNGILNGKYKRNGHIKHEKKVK
# Assay: Assay 1: CGT Enzymatic Assay (RapidFire/MS/MS, 0.01% Tween 80)
# Type: biochemical
# Settings: Table 1, Compounds of Formula (I) and Formula (II); CGT enzymatic assay, C6-NBD-dihydro-galactosylceramide readout; read-out: IC50
row,SMILES,pIC50
1,"CC1(C(F)(F)F)N(c2ccc(Cl)cc2)C(=O)N(c2ccc(Cl)cc2)C1(O)c1cc(C#N)cc(C#N)c1 (racemic) [Example 331, 5-((5S)-1,3-bis(4-chlorophenyl)-4-hydroxy-5-methyl-2-oxo-5-(trifluoromethyl)imidazolidin-4-yl)isophthalonitrile and 5-((5R)-1,3-bis(4-chlorophenyl)-4-hydroxy-5-methyl-2-oxo-5-(trifluoromethyl)imidazolidin-4-yl)isophthalonitrile]",> 6.00
2,"Cc1ccc(N2C(=O)N(c3ccc(C#N)cc3)C(C)(C)C2(O)c2cccc(C#N)c2)cc1 (centres unmarked) [Compound 270, 3-(1-(4-cyanophenyl)-4-hydroxy-5,5-dimethyl-2-oxo-3-(p-tolyl)imidazolidin-4-yl)benzonitrile]",> 6.00
3,"O=C1N(c2ccc(Cl)cc2)C2(CC(F)(F)C2)C(O)(c2cccc(OC(F)(F)F)c2)N1c1ccc(Cl)cc1 (centres unmarked) [Compound 304, 5,7-bis(4-chlorophenyl)-2,2-difluoro-8-hydroxy-8-(3-(trifluoromethoxy)phenyl)-5,7-diazaspiro[3.4]octan-6-one]",> 6.00
4,"Cc1ccc(N2C(=O)N(c3ccc(C#N)cc3)C(O)(c3cccc(OC(F)(F)F)c3)C2(C)C)cc1 (centres unmarked) [Example 314, 4-(5-hydroxy-4,4-dimethyl-2-oxo-3-(p-tolyl)-5-(3-(trifluoromethoxy)phenyl)imidazolidin-1-yl)benzonitrile]",> 6.00
5,"C[C@@]1(C(F)(F)F)N(c2ccc(Cl)cc2)C(=O)N(c2ccc(Cl)cc2)C1(O)c1cc(C#N)cc(C#N)c1 (stereo partly drawn) [Example 331-2, 5-((5R)-1,3-bis(4-chlorophenyl)-4-hydroxy-5-methyl-2-oxo-5-(trifluoromethyl)imidazolidin-4-yl)isophthalonitrile]",> 6.00
6,"CC(C)c1c(-c2ccccc2)n(-c2ccc(Br)cc2)c(=O)n1-c1ccc(Br)cc1 [Compound 267, 1,3-bis(4-bromophenyl)-4-isopropyl-5-phenyl-1,3-dihydro-2H-imidazol-2-one]",> 6.00
7,"COCC1(C)N(c2ccc(Cl)cc2)C(=O)N(c2ccc(Cl)cc2)C1(O)c1cccc(OC(F)(F)F)c1 (mixture of isomers) [Compound 296, 1,3-bis(4-chlorophenyl)-4-hydroxy-5-(methoxymethyl)-5-methyl-4-(3-(trifluoromethoxy)phenyl)imidazolidin-2-one]",> 6.00
8,"Cc1ccc(N2C(=O)N(c3ccc(C)cc3)C(O)(c3cccc(C(C)(F)F)c3)C23COC3)cc1 (centres unmarked) [Compound 286, 8-(3-(1,1-difluoroethyl)phenyl)-8-hydroxy-5,7-di-p-tolyl-2-oxa-5,7-diazaspiro[3.4]octan-6-one]",> 6.00
9,"C[C@]1(C(F)(F)F)N(c2ccc(Cl)cc2)C(=O)N(c2ccc(Cl)cc2)C1(O)c1cc(C#N)cc(C#N)c1 (stereo partly drawn) [Example 331-1, 5-((5S)-1,3-bis(4-chlorophenyl)-4-hydroxy-5-methyl-2-oxo-5-(trifluoromethyl)imidazolidin-4-yl)isophthalonitrile]",> 6.00

# Next, values leading:
row,pIC50,SMILES
1,> 6.00,"Cc1ccc(N2C(=O)N(c3ccc(Cl)cc3)C(O)(c3cccc(C#N)c3)C23COC3)cc1 (centres unmarked) [Compound 283, 3-(7-(4-chlorophenyl)-8-hydroxy-6-oxo-5-(p-tolyl)-2-oxa-5,7-diazaspiro[3.4]octan-8-yl)benzonitrile]"
2,> 6.00,"Cc1ccc(N2C(=O)N(c3ccc(Cl)cc3)C3(COC3)C2(O)c2cccc(C#N)c2)cc1 (centres unmarked) [Compound 298, 3-(5-(4-chlorophenyl)-8-hydroxy-6-oxo-7-(p-tolyl)-2-oxa-5,7-diazaspiro[3.4]octan-8-yl)benzonitrile]"

# Same assay, conditions: Table 1, Compounds of Formula (I) and Formula (II); CGT enzymatic assay; read-out: IC50
row,SMILES,pIC50
1,"O=C1N(c2ccc(Cl)cc2)[C@@H](C2CCC2)C(O)(c2cccc(OC(F)(F)F)c2)N1c1ccc(Cl)cc1 (stereo partly drawn) [Example 191-1, (5S)-1,3-bis(4-chlorophenyl)-5-cyclobutyl-4-hydroxy-4-(3-(trifluoromethoxy)phenyl)imidazolidin-2-one]",> 6.00
2,Cc1cc(C)cc(C2(O)C(C)N(c3ccc(Br)cc3)C(=O)N2c2ccc(Br)cc2)c1 (centres unmarked) [Example 42],> 6.00
3,CC[C@H]1N(c2ccc(Br)cc2)C(=O)N(c2ccc(Br)cc2)C1(O)c1ccccc1 (some centres unmarked) [Example 25-2],> 6.00
4,"CCC[C@@H]1N(c2ccc(Br)cc2)C(=O)N(c2ccc(Br)cc2)C1(O)c1cccc(Cl)c1 (stereo partly drawn) [Compound 119-1, (5S)-1,3-bis(4-bromophenyl)-4-(3-chlorophenyl)-4-hydroxy-5-propylimidazolidin-2-one]",> 6.00
5,"CC1(C)N(c2ccc(Cl)cc2)C(=O)N(c2ccc(Cl)cc2)C1(O)c1cc(Br)cc(C#N)c1 (centres unmarked) [Example 158, 3-(1,3-bis(4-chlorophenyl)-4-hydroxy-5,5-dimethyl-2-oxoimidazolidin-4-yl)-5-bromobenzonitrile]",> 6.00
6,"O=C1N(c2ccc(Cl)cc2)[C@H](c2ccccc2)[C@](O)(CO)N1c1ccc(Cl)cc1 [Example 218-1, (4S,5R)-1,3-bis(4-chlorophenyl)-4-hydroxy-4-(hydroxymethyl)-5-phenylimidazolidin-2-one]",4.30 to 5.00
7,"C[C@@]1(c2ccccc2)N(c2ccc(Cl)cc2)C(=O)N(c2ccc(Cl)cc2)[C@]1(O)c1ccccc1 [Compound 121-1, (4S,5S)-1,3-bis(4-chlorophenyl)-4-hydroxy-5-methyl-4,5-diphenylimidazolidin-2-one]",4.30 to 5.00
8,"CC(=O)c1cccc(-c2c(C)n(-c3ccc(Cl)cc3)c(=O)n2-c2ccc(Cl)cc2)c1 [Compound 253, 4-(3-acetylphenyl)-1,3-bis(4-chlorophenyl)-5-methyl-1,3-dihydro-2H-imidazol-2-one]",5.00 to 6.00
9,"O=C1N(c2ccc(F)cc2)CC(O)(c2ccccc2)N1c1ccc(F)cc1 (centres unmarked) [Example 11, 1,3-bis(4-fluorophenyl)-4-hydroxy-4-phenylimidazolidin-2-one]",< 4.30
10,"Cc1ccc(N2C(=O)N(c3ccc(C)cc3)C(O)(c3cccc(C#N)c3)[C@@H]2C)cc1 (single isomer, unassigned) [Compound 105-1]",5.00 to 6.00
11,"CCc1cccc(C2(O)[C@H](C)N(c3ccc(Cl)cc3)C(=O)N2c2ccc(Cl)cc2)c1 (stereo partly drawn) [Compound 69-1, (5S)-1,3-bis(4-chlorophenyl)-4-(3-ethylphenyl)-4-hydroxy-5-methylimidazolidin-2-one]",> 6.00
12,"COc1ccccc1C1(O)C(=O)N(c2ccc(Br)cc2)C(=O)N1c1ccc(Br)cc1 (centres unmarked) [Example 206, 1,3-bis(4-bromophenyl)-5-hydroxy-5-(2-methoxyphenyl)imidazolidine-2,4-dione]",< 4.30
13,"CCC[C@@H]1N(c2ccc(Br)cc2)C(=O)N(c2ccc(Br)cc2)C1(O)c1cccc(C(F)(F)F)c1 (stereo partly drawn) [Compound 100-1, (5S)-1,3-bis(4-bromophenyl)-4-hydroxy-5-propyl-4-(3-(trifluoromethyl)phenyl)imidazolidin-2-one]",> 6.00
14,"Cc1cccc(N2C(=O)N(c3cccc(C)c3)C(O)(c3cccc(OC(F)(F)F)c3)C2C)c1 (centres unmarked) [Compound 107, 4-hydroxy-5-methyl-1,3-di-m-tolyl-4-(3-(trifluoromethoxy)phenyl)imidazolidin-2-one]",> 6.00
15,"CC1(O)C(=O)N(c2ccc(Br)cc2)C(=O)N1c1ccc(Br)cc1 (centres unmarked) [Example 193, 1,3-bis(4-bromophenyl)-5-hydroxy-5-methylimidazolidine-2,4-dione]",4.00 to 4.30

# The next lines start with the values.
row,pIC50,SMILES
1,> 6.00,"C[C@H]1N(c2ccc(Cl)cc2)C(=O)N(c2ccc(Cl)cc2)C1(O)c1cccc(Br)c1 (stereo partly drawn) [Compound 94-2, (5R)-4-(3-bromophenyl)-1,3-bis(4-chlorophenyl)-4-hydroxy-5-methylimidazolidin-2-one]"
2,> 6.00,"N#Cc1cccc(C2(O)CN(c3ccc(Cl)cc3)C(=O)N2c2ccc(Cl)cc2)c1 (centres unmarked) [Compound 63, 3-(1,3-bis(4-chlorophenyl)-4-hydroxy-2-oxoimidazolidin-4-yl)benzonitrile]"
3,> 6.00,"CCC[C@H]1N(c2ccc(Cl)cc2)C(=O)N(c2ccc(Cl)cc2)C1(O)c1cccc(C#N)c1 (stereo partly drawn) [Compound 101-2, 3-((5R)-1,3-bis(4-chlorophenyl)-4-hydroxy-2-oxo-5-propylimidazolidin-4-yl)benzonitrile]"
4,5.00 to 6.00,"O=C1N(c2ccc(Cl)cc2)CC(O)(c2cccc(C3CC3)c2)N1c1ccc(Cl)cc1 (centres unmarked) [Compound 78, 1,3-bis(4-chlorophenyl)-4-(3-cyclopropylphenyl)-4-hydroxyimidazolidin-2-one]"
5,< 4.30,"CCC1(O)CN(c2ccc(Cl)cc2)C(=O)N1c1ccc(Cl)cc1 (centres unmarked) [Example 56, 1,3-bis(4-chlorophenyl)-4-ethyl-4-hydroxyimidazolidin-2-one]"
6,> 6.00,"CCCC1N(c2ccc(Cl)cc2)C(=O)N(c2ccc(Cl)cc2)C1(O)c1cccc(Cl)c1 (centres unmarked) [Compound 114, 4-(3-chlorophenyl)-1,3-bis(4-chlorophenyl)-4-hydroxy-5-propylimidazolidin-2-one]"
7,> 6.00,"N#Cc1cccc(C2(O)N(c3ccc(Cl)cc3)C(=O)N(c3ccc(Cl)cc3)[C@@]23CCOC3)c1 (stereo partly drawn) [Example 221-2, 3-((5R)-1,3-bis(4-chlorophenyl)-4-hydroxy-2-oxo-7-oxa-1,3-diazaspiro[4.4]nonan-4-yl)benzonitrile]"
8,> 6.00,Cc1cccc(C2(O)C(C)N(c3ccc(Cl)cc3)C(=O)N2c2ccc(Cl)cc2)c1 (centres unmarked) [Example 36]
9,> 6.00,Cc1c(-c2cccc(C#N)c2)n(-c2ccc(Cl)cc2)c(=O)n1-c1ccc(Cl)cc1 [Example 3]
